In patent US8148391B2 (Cephalon, Inc., priority 2006, dated 2012):
Where two headings read alike, the source gives them in different places. Blank lines part the entries; values can stand above or below the compound they belong to.

Experiments:
[1] = molecular target: T1, baculovirus-expressed ALK (Homo sapiens, UniProt Q9UM73); test: ALK Kinase Assay (ELISA-type, time-resolved fluorescence); assay type: biochemical
T1 construct: host or cells: baculovirus expression system
Summary of the method: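 Wells were coated with phospholipase C-γ at 10 μg/mL in Tris-buffered saline. Adding 30 ng/ml enzyme started the reaction, which ran at 37° C for 15 minutes before Eu-N1 PT66 antibody detection. Percent inhibition versus log10 concentration gave IC50 by variable-slope fit.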

[2] = molecular target: T2, c-Met (cytoplasmic domain) (Homo sapiens, UniProt P08581); test: c-Met Kinase Assay (same methods as for ALK, with modifications); assay type: biochemical
T2 construct: 10 ng/mL c-Met (cytoplasmic domain, Invitrogen Corporation #PV3143); purchased Invitrogen Corporation PV3143
T2 sequence (P08581 956-1390 limits assumed): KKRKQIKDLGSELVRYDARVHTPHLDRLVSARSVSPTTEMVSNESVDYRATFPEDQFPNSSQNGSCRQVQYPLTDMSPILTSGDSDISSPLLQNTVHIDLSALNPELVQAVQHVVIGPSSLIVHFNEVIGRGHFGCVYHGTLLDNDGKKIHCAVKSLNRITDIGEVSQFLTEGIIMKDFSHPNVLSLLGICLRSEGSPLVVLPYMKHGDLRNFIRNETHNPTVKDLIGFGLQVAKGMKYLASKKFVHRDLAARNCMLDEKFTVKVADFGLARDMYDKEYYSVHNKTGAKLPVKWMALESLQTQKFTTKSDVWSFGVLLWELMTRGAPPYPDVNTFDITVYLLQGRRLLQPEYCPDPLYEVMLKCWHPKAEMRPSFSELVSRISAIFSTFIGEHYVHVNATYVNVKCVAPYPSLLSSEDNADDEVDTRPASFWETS
Summary of the method: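 IC50 values were fitted by variable-slope sigmoidal regression of percent inhibition against log compound concentration. Phosphorylation was read with Eu-N1 PT66 antibody after a 15 min, 37 °C reaction. The reaction was initiated with 10 ng/mL c-Met cytoplasmic domain on wells coated with 10 μg/mL PLC-γ in TBS.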

[3] = ALK kinase inhibition, 1 μM ATP (Km level), read-out: ALK Activity
[4] = c-Met kinase inhibition, 1 μM ATP (Km level), read-out: cMet Activity
[5] = ALK kinase inhibition, 1 μM ATP, read-out: ALK Activity
[6] = c-Met kinase inhibition, 1 μM ATP, read-out: cMet Activity
[7] = 1 μM ATP (Km level), read-out: ALK Activity (ALK Kinase Inhibition, IC50)
[8] = 1 μM ATP (Km level), read-out: cMet Activity (c-Met Kinase Inhibition, IC50)
[9] = 1 μM ATP (Km level), 30 ng/ml ALK, 37° C., 15 minutes, read-out: ALK Activity (ALK kinase inhibition, IC50 class)
[10] = 1 μM ATP (Km level), 10 ng/mL c-Met, read-out: cMet Activity (c-Met kinase inhibition, IC50 class)

T1 sequence (Q9UM73 19-1620): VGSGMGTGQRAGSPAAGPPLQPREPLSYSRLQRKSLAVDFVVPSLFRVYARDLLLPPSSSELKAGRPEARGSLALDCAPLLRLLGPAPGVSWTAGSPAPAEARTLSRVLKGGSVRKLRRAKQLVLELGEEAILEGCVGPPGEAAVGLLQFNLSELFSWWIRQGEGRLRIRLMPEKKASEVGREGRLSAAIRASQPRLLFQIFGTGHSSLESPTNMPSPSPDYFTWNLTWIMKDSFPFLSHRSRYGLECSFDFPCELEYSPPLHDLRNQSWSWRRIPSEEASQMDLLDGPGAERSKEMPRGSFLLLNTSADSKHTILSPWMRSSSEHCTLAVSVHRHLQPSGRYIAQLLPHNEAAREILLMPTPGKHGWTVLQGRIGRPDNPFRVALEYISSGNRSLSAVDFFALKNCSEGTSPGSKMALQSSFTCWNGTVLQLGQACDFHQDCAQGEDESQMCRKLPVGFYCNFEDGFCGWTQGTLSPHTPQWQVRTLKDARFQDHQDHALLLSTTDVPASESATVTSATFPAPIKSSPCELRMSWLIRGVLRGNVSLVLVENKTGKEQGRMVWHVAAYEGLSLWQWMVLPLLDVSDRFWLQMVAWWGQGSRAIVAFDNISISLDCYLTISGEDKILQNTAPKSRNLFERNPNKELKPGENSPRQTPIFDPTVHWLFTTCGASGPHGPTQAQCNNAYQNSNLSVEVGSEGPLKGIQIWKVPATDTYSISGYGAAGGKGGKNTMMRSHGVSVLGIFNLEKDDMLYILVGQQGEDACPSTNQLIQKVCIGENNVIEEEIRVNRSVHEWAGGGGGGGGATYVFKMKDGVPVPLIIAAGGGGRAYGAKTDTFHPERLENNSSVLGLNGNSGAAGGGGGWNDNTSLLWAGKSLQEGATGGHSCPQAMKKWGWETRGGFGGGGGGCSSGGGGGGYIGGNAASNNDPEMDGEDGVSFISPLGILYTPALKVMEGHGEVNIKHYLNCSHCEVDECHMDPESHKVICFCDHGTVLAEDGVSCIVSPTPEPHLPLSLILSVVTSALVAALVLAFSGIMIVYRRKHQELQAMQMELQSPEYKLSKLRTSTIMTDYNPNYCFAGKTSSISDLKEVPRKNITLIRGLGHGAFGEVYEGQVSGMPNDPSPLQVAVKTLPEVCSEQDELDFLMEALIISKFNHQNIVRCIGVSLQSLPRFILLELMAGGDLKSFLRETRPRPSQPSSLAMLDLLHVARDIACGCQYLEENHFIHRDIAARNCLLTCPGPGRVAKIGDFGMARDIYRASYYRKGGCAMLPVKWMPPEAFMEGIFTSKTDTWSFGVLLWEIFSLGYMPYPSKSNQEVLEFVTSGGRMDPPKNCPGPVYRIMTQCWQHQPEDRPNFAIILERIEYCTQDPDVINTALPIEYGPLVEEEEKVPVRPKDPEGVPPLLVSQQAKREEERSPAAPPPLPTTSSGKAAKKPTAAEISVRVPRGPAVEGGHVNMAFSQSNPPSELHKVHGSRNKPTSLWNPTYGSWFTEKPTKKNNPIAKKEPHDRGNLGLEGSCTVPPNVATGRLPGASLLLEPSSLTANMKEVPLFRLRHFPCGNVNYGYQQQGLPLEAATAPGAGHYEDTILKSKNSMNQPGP

IC50 [1, 3]: < 0.1 µM
IC50 [2, 4]: > 10 µM
Structure (SMILES): COc1c(Nc2ncc(Cl)c(N[C@H]3[C@@H](C(N)=O)[C@@H]4C=C[C@H]3C4)n2)ccc2c1CCCC(=O)N2 (relative stereo) [Example 139, (2-exo,3-exo)-3-[5-Chloro-2-(6-methoxy-2-oxo-2,3,4,5-tetrahydro-1H-benzo[b]azepin-7-ylamino)-pyrimidin-4-ylamino]-bicyclo[2.2.1]hept-5-ene-2-carboxylic acid amide]

IC50 [1, 5]: < 0.1 µM
IC50 [2, 6]: > 10 µM
Structure (SMILES): COc1cc2c(cc1Nc1ncc(Cl)c(Nc3ccc(N4CCOCC4)cc3OC)n1)CCOC(=O)N2C [Example 1506, 2-[5-Chloro-4-(2-methoxy-4-morpholin-4-yl-phenylamino)-pyrimidin-2-ylamino]-3-methoxy-5-methyl-8,9-dihydro-5H-7-oxa-5-aza-benzocyclohepten-6-one]

IC50 [1, 7]: < 0.1 µM
IC50 [2, 8]: 0.1 to 1 µM
Structure (SMILES): COCCN1CCc2ccc(Nc3ncc(Cl)c(Nc4ccccc4-c4ncccc4OC)n3)cc2CC1 [Example 990, 5-Chloro-N*2*-[3-(2-methoxy-ethyl)-2,3,4,5-tetrahydro-1H-benzo[d]azepin-7-yl]-N*4*-[2-(3-methoxy-pyridin-2-yl)-phenyl]-pyrimidine-2,4-diamine]

IC50 [1, 3]: < 0.1 µM
IC50 [2, 4]: > 10 µM
Structure (SMILES): COc1cc2c(cc1Nc1ncc(Cl)c(Nc3ccc(N4CCOCC4)cc3OC)n1)CCN(CC(F)(F)F)CC2 [Example 249, 5-Chloro-N*4*-(2-methoxy-4-morpholin-4-yl-phenyl)-N*2*-[8-methoxy-3-(2,2,2-trifluoro-ethyl)-2,3,4,5-tetrahydro-1H-benzo[d]azepin-7-yl]-pyrimidine-2,4-diamine]

IC50 [1, 7]: < 0.1 µM
IC50 [2, 8]: > 10 µM
Structure (SMILES): CNC(=O)c1ccccc1Nc1nc(Nc2cc3c(cc2OC)CCN(CC(C)(F)F)CC3)ncc1Cl [Example 786, 2-{5-Chloro-2-[3-(2,2-difluoro-propyl)-8-methoxy-2,3,4,5-tetrahydro-1H-benzo[d]azepin-7-ylamino]-pyrimidin-4-ylamino}-N-methyl-benzamide]

IC50 [1, 3]: < 0.1 µM
IC50 [2, 4]: > 10 µM
Structure (SMILES): COc1cc(N2CCOCC2)ccc1Nc1nc(Nc2ccc3c(c2)CCN(C[C@H](O)C(F)(F)F)CC3)ncc1Cl [Example 330, (S)-3-{7-[5-Chloro-4-(2-methoxy-4-morpholin-4-yl-phenylamino)-pyrimidin-2-ylamino]-1,2,4,5-tetrahydro-benzo[d]azepin-3-yl}-1,1,1-trifluoro-propan-2-ol]

IC50 [1, 9]: < 0.1 µM
IC50 [2, 10]: 1 to 10 µM
Structure (SMILES): COc1cc2c(cc1Nc1ncc(Cl)c(Nc3ccccc3S(=O)(=O)N(C)C)n1)CCC(N1CCN(C)CC1)CC2 (stereo not shown) [Example 1099, 2-{5-Chloro-2-[3-methoxy-7-(4-methyl-piperazin-1-yl)-6,7,8,9-tetrahydro-5H-benzocyclohepten-2-ylamino]-pyrimidin-4-ylamino}-N,N-dimethyl-benzenesulfonamide]

IC50 [1, 3]: > 10 µM
IC50 [2, 4]: > 10 µM
Structure (SMILES): CN1CCN(C)c2cccc(Nc3ncc(Cl)c(Nc4ccccc4NS(C)(=O)=O)n3)c2C1=O [Example 215, N-{2-[5-Chloro-2-(1,4-dimethyl-5-oxo-2,3,4,5-tetrahydro-1H-benzo[e][1,4]diazepin-6-ylamino)-pyrimidin-4-ylamino]-phenyl}-methanesulfonamide]

IC50 [1, 5]: < 0.1 µM
IC50 [2, 6]: 1 to 10 µM
Structure (SMILES): COc1cc2c(cc1Nc1ncc(Cl)c(Nc3ccccc3OCC#N)n1)CCOC(=O)N2C [Example 1516, {2-[5-Chloro-2-(3-methoxy-5-methyl-6-oxo-5,6,8,9-tetrahydro-7-oxa-5-aza-benzocyclohepten-2-ylamino)-pyrimidin-4-ylamino]-phenoxy}-acetonitrile]

IC50 [1, 5]: < 0.1 µM
IC50 [2, 6]: 1 to 10 µM
Structure (SMILES): CNC(=O)c1ccccc1Nc1nc(Nc2cc3c(cc2OC)CCOC(=O)N3C)ncc1Br [Example 1512, 2-[5-Bromo-2-(2-methoxy-5-methyl-6-oxo-5,6,8,9-tetrahydro-7-oxa-5-aza-benzocyclohepten-3-ylamino)-pyrimidin-4-ylamino]-N-methyl-benzamide]

IC50 [1, 5]: < 0.1 µM
IC50 [2, 6]: > 10 µM
Structure (SMILES): CCN1CC(=O)Nc2cc(Nc3ncc(Cl)c(Nc4ccc(N5CCOCC5)cc4OC)n3)c(OC)cc2C1 [Example 1661, 8-[5-Chloro-4-(2-methoxy-4-morpholin-4-yl-phenylamino)-pyrimidin-2-ylamino]-4-ethyl-7-methoxy-1,3,4,5-tetrahydro-benzo[e][1,4]diazepin-2-one]

IC50 [1, 3]: < 0.1 µM
IC50 [2, 4]: > 10 µM
Structure (SMILES): COc1cc2c(cc1Nc1ncc(Cl)c(N[C@@H]3CCCC[C@H]3NS(C)(=O)=O)n1)N(C)CCN(C[C@@H](O)C(F)(F)F)C2 [Example 492, N-((1R,2R)-2-{5-Chloro-2-[7-methoxy-1-methyl-4-((R)-3,3,3-trifluoro-2-hydroxy-propyl)-2,3,4,5-tetrahydro-1H-benzo[e][1,4]diazepin-8-ylamino]-pyrimidin-4-ylamino}-cyclohexyl)-methanesulfonamide]

IC50 [1, 3]: < 0.1 µM
IC50 [2, 4]: < 0.1 µM
Structure (SMILES): CNC(=O)c1ccccc1Nc1nc(Nc2ccc3c(c2)C(C)(C)CCC(=O)N3C)ncc1Cl [Example 384, 2-[5-Chloro-2-(1,5,5-trimethyl-2-oxo-2,3,4,5-tetrahydro-1H-benzo[b]azepin-7-ylamino)-pyrimidin-4-ylamino]-N-methyl-benzamide]

IC50 [1, 5]: 0.1 to 1 µM
IC50 [2, 6]: < 0.1 µM
Structure (SMILES): CNC(=O)c1ccc(Cl)c(Cl)c1Nc1nc(Nc2ccc3c(c2)CCOC(=O)N3C)ncc1Cl [Example 1757, 3,4-Dichloro-2-[5-chloro-2-(5-methyl-6-oxo-5,6,8,9-tetrahydro-7-oxa-5-aza-benzocyclohepten-2-ylamino)-pyrimidin-4-ylamino]-N-methyl-benzamide]

IC50 [1, 7]: < 0.1 µM
IC50 [2, 8]: > 10 µM
Structure (SMILES): COCCN1CCc2cc(Nc3ncc(Cl)c(Nc4ccccc4-c4ncccc4C)n3)c(OC)cc2CC1 [Example 987, 5-Chloro-N*2*-[8-methoxy-3-(2-methoxy-ethyl)-2,3,4,5-tetrahydro-1H-benzo[d]azepin-7-yl]-N*4*-[2-(3-methyl-pyridin-2-yl)-phenyl]-pyrimidine-2,4-diamine]

IC50 [1, 9]: 1 to 10 µM
IC50 [2, 10]: > 10 µM
Structure (SMILES): CCN1CCc2ccc(OC)c(Nc3ncc(Cl)c(Nc4ccc(N5CCOCC5)cc4OC)n3)c2CC1=O [Example 1133, 9-[5-Chloro-4-(2-methoxy-4-morpholin-4-yl-phenylamino)-pyrimidin-2-ylamino]-3-ethyl-8-methoxy-1,3,4,5-tetrahydro-benzo[d]azepin-2-one]

IC50 [1, 7]: < 0.1 µM
IC50 [2, 8]: > 10 µM
Structure (SMILES): COCCNC1CCCc2c(ccc(Nc3ncc(Cl)c(Nc4ccccc4S(=O)(=O)N(C)C)n3)c2OC)C1 (stereo not shown) [Example 957, 2-{5-Chloro-2-[1-methoxy-6-(2-methoxy-ethylamino)-6,7,8,9-tetrahydro-5H-benzocyclohepten-2-ylamino]-pyrimidin-4-ylamino}-N,N-dimethyl-benzenesulfonamide]

IC50 [1, 9]: < 0.1 µM
IC50 [2, 10]: 0.1 to 1 µM
Structure (SMILES): CN(C)C(=O)CN1CCc2ccc(Nc3ncc(Cl)c(N[C@@H]4CCCC[C@H]4NS(C)(=O)=O)n3)cc2CC1 [Example 1371, 2-{7-[5-Chloro-4-((1R,2R)-2-methanesulfonylamino-cyclohexylamino)-pyrimidin-2-ylamino]-1,2,4,5-tetrahydro-benzo[d]azepin-3-yl}-N,N-dimethyl-acetamide]

IC50 [1, 7]: 0.1 to 1 µM
IC50 [2, 8]: > 10 µM
Structure (SMILES): COc1cc2c(cc1Nc1ncc(Cl)c(Nc3cc(Cl)ccc3OC)n1)CCN(CC(C)(F)F)CC2 [Example 785, 5-Chloro-N*4*-(5-chloro-2-methoxy-phenyl)-N*2*-[3-(2,2-difluoro-propyl)-8-methoxy-2,3,4,5-tetrahydro-1H-benzo[d]azepin-7-yl]-pyrimidine-2,4-diamine]

IC50 [1, 7]: < 0.1 µM
IC50 [2, 8]: > 10 µM
Structure (SMILES): CCN1C(=O)CCCc2cc(Nc3ncc(Cl)c(Nc4ccc(OC)cc4-n4cccn4)n3)c(OC)cc21 [Example 614, 7-[5-Chloro-4-(4-methoxy-2-pyrazol-1-yl-phenylamino)-pyrimidin-2-ylamino]-1-ethyl-8-methoxy-1,3,4,5-tetrahydro-benzo[b]azepin-2-one]

IC50 [1, 5]: < 0.1 µM
IC50 [2, 6]: > 10 µM
Structure (SMILES): COc1cc2c(cc1Nc1ncc(Cl)c(N[C@@H]3CCCC[C@H]3NS(C)(=O)=O)n1)NC(=O)CN(CC1CC1)C2 [Example 1666, N-(1R,2R)-{2-[5-Chloro-2-(4-cyclopropylmethyl-7-methoxy-2-oxo-2,3,4,5-tetrahydro-1H-benzo[e][1,4]diazepin-8-ylamino)-pyrimidin-4-ylamino]-cyclohexyl}-methanesulfonamide]

IC50 [1, 9]: < 0.1 µM
IC50 [2, 10]: 1 to 10 µM
Structure (SMILES): COc1cc2c(cc1Nc1ncc(Cl)c(Nc3ccccc3S(=O)(=O)N(C)C)n1)CCN(C(=O)CN1CCOCC1)CC2 [Example 1192, 2-{5-Chloro-2-[8-methoxy-3-(2-morpholin-4-yl-acetyl)-2,3,4,5-tetrahydro-1H-benzo[d]azepin-7-ylamino]-pyrimidin-4-ylamino}-N,N-dimethyl-benzenesulfonamide]

IC50 [1, 5]: < 0.1 µM
IC50 [2, 6]: < 0.1 µM
Structure (SMILES): CCN1C(=O)CCC(C)(C)c2ccc(Nc3ncc(Cl)c(Nc4c(F)cccc4OCC#N)n3)cc21 [Example 1520, {2-[5-Chloro-2-(1-ethyl-5,5-dimethyl-2-oxo-2,3,4,5-tetrahydro-1H-1-benzazepin-8-ylamino)-pyrimidin-4-ylamino]-3-fluoro-phenoxy}-acetonitrile]
